Key:
[1] = system: panel of distinct kinases excluding mutant variants, typically 359 or 386 kinases; assay: Kinase selectivity score S10 from competition binding panel; details: compound at 10 μM; fraction of kinases with inhibition of 90% or greater
Description: (§1) Competition binding assays used herein were developed, validated and performed as described in Fabian et al., Nature Biotechnology 2005, 23, 329-336. Kinases were produced as fusions to T7 phage (See, Fabian et al. or WO04/015142) or alternatively, the kinases were expressed in HEK-293 cells and subsequently tagged with DNA for PCR detection (See, WO08/005,310). For the binding assays, streptavidin-coated magnetic beads were treated with biotinylated affinity ligands for 30 min at rt to generate affinity resins. The liganded beads were blocked with excess biotin and washed with blocking buffer (SeaBlock (Pierce), 1% BSA, 0.05% Tween 20, 1 mM DTT) to remove unbound ligand and to reduce non-specific binding. Binding reactions were assembled by combining kinase, liganded affinity beads, and test compounds in 1× binding buffer (20% SeaBlock, 0.17×PBS, 0.05% Tween 20, 6 mM DTT). Test compounds were prepared as 100× stocks in DMSO and rapidly diluted into the aqueous environment. DMSO was added to control assays lacking a test compound. Primary screen interactions were performed in polypropylene 384-well plates in a final volume of 34 μL, while Kd determinations were performed in polystyrene 96-well plates in a final volume of 135 μL. The assay plates were incubated at room temperature with shaking for 1 hour, long enough for binding reactions to reach equilibrium, and the affinity beads were washed extensively with wash buffer (1×PBS, 0.05% Tween 20) to remove unbound protein. The beads were then resuspended in elution buffer (1×PBS, 0.05% Tween 20, 2 μM non-biotinylated affinity ligand) and incubated at room temperature with shaking for 30 min. The kinase concentration in the eluates was measured by quantitative PCR. Each kinase was tested individually against each compound. Kds were determined using eleven serial threefold dilutions. A selectivity score, which is a quantitative measure of selectivity of a compound against a panel of enzymes, may be calculated for a compound by dividing the number of enzymes for which a compound meets a set criteria, (for example, a binding constant of 100 nM or less), by the total number of enzymes tested.

[2] = molecular target: T1, JAK2 (Homo sapiens, UniProt O60674); assay: Competition binding assay to determine Kd against JAK kinases: JAK2
T1 construct: made in house
Description: as §1

[3] = molecular target: T2, TYK2 (Homo sapiens, UniProt P29597); assay: Competition binding assay to determine Kd against JAK kinases: TYK2
T2 construct: made in house
Description: as §1

[4] = system: GM-CSFR/JAK2/STAT5 pathway in CSTF-1 cells; assay: CSTF-1 cell-based reporter assay (beta-lactamase reporter, GM-CSF stimulated); details: Homo sapiens, GM-CSF at 2 ng/mL, 4 hours, read-out: Cell Assay: CS TF-1 reporter assay IC50
Description: CSTF-1 cells are derived from the human erythroleukemia cell line that is growth dependent on GM-CSF and has an intact GM-CSFR/JAK2/STAT5 pathway. The cell line contains stably integrated beta-lactamase reporter gene under the control of the […] (irf 1) response element recognized by the activated transcription factor STAT5. csTF-1 cells (Invitrogen K1219) were washed with assay media (97% OPTIMEM/0.5% dialyzed FBS/0.1 mM NEAA/1 mM Na pyr/P/S) and seeded in the same media at 5×10^5 cell/mL in T150 flask. After 16 hour incubation, cells were seeded at 2×10^5 cell/well in 50 μl volume, into Costar, clear bottom, 96-well assay plates. Serial dilutions of compounds were added to the plates with final DMSO concentration at 0.5% and GM-CSF at 2 ng/mL and the plates were then incubated at 30° C. and 5% CO2 for 4 hours. The plates were brought to room temperature before adding Substrate Mixture according to manufacturer's protocol (Invitrogen, Catalog #K1085). The assay plates containing the substrate mixture were incubated in the dark at room temperature for 2 hours. Blue and green fluorescence was measured with excitation at 409 nm and emission at 460 nm (for blue) and excitation at 409 nm and emission at 530 nm (for green) using Spectra Max Gemini EM.

[5] = molecular target: T3, JAK3 (Homo sapiens, UniProt P52333); assay: Competition binding assay to determine Kd against JAK kinases: JAK3
T3 construct: made in house
T3 sequence (P52333 1-1124): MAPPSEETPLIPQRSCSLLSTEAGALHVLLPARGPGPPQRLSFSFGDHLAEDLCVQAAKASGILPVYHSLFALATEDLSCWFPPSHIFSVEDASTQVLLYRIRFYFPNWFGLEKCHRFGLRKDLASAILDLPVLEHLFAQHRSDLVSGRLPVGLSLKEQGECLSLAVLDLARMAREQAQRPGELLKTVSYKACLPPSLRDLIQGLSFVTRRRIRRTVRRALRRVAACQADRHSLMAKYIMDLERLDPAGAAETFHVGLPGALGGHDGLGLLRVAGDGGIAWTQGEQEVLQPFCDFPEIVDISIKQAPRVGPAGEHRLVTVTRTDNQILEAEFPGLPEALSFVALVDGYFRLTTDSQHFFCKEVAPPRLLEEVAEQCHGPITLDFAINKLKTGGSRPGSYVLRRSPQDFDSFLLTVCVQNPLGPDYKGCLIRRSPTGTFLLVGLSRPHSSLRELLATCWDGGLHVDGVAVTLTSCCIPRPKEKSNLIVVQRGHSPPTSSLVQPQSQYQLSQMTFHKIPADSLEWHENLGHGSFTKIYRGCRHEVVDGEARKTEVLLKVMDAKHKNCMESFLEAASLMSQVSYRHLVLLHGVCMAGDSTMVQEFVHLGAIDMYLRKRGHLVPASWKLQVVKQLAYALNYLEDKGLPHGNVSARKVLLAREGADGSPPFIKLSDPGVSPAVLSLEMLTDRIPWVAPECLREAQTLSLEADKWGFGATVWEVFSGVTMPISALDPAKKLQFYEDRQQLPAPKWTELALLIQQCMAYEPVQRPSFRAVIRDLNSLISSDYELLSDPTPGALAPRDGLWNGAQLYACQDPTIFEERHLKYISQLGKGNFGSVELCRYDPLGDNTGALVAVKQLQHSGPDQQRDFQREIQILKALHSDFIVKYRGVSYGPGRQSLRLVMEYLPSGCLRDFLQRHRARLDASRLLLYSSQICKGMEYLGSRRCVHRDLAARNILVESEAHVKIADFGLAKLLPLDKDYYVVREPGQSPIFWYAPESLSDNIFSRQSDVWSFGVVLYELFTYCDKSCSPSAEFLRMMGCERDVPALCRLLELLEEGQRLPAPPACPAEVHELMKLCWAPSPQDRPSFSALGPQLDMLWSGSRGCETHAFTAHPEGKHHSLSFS
Description: as §1

T1 sequence (O60674 whole entry): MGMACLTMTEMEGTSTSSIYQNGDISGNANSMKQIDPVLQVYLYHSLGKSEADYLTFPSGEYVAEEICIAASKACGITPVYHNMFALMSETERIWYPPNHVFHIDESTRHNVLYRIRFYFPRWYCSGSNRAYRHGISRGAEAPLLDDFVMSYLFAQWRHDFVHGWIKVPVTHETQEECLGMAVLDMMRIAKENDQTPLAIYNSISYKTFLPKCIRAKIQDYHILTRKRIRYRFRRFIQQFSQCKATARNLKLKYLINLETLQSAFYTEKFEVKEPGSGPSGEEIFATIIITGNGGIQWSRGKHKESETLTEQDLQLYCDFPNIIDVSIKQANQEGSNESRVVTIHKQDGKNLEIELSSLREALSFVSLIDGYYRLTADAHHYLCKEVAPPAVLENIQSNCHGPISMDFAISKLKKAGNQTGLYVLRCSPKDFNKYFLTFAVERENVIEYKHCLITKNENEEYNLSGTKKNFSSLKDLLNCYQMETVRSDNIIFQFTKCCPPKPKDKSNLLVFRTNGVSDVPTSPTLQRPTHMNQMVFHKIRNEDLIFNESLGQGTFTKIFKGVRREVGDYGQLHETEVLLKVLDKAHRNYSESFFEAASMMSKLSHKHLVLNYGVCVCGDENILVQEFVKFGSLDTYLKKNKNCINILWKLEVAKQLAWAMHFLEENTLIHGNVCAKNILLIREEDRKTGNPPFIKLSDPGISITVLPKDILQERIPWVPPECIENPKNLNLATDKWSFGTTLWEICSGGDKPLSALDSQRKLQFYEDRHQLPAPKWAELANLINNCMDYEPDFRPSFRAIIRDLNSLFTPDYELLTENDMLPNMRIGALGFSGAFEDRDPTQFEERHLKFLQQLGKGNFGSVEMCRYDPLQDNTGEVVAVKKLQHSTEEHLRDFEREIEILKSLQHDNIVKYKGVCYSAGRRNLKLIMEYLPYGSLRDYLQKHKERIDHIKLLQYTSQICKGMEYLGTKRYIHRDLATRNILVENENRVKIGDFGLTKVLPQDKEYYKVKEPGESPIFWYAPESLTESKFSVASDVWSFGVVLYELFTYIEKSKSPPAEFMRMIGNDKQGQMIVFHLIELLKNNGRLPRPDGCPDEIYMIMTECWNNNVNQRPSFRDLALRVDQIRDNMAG
T2 sequence (P29597 whole entry): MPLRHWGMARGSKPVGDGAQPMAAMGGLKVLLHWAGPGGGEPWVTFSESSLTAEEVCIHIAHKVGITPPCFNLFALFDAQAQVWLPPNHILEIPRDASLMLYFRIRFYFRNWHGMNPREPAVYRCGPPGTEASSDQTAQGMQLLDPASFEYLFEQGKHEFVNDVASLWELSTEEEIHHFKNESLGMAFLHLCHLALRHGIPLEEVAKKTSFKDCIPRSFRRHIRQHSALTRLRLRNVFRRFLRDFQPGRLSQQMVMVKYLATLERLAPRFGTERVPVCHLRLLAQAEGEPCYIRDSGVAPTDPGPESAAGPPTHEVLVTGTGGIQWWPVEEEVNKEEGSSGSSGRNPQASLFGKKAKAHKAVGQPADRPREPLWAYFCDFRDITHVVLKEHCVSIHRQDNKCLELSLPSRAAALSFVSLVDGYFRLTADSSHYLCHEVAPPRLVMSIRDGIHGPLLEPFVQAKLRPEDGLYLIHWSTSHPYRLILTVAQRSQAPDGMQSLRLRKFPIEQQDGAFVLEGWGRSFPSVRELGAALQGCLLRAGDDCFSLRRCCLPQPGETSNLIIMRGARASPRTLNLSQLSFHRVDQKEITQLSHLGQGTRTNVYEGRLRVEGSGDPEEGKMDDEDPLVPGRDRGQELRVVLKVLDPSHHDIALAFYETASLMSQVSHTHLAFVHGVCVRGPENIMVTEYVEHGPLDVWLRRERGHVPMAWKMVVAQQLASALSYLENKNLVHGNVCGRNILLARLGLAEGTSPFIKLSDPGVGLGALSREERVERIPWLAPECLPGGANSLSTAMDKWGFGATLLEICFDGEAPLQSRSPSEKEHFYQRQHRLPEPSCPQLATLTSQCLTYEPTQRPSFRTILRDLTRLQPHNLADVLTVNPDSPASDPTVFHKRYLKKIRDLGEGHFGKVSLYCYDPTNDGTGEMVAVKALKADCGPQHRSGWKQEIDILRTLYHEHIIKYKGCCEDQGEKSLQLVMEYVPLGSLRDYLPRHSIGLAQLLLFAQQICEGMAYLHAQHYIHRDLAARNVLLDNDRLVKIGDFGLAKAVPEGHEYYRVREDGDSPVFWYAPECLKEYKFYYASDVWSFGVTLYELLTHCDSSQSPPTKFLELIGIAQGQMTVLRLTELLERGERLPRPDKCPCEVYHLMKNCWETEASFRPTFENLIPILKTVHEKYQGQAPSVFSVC

Row | SMILES | S-Score: S(10) at 10 μM [1] | Kd [2] [nM] | Kd [3] [nM] | IC50 [4] [nM] | Kd [5] [nM]
1 | O=S(=O)(c1ccc(F)cc1)c1cc2ccccc2c(Nc2cc(O)[nH]n2)n1 [Example 19, 3-(3-(4-fluorophenylsulfonyl)isoquinolin-1-ylamino)-1H-pyrazol-5-ol] | A (A ≦ 0.3) | 5 to 50 | 10 to 100 | > 500 | > 100
2 | Cc1cnc(Nc2nc(S(=O)(=O)c3ccc(F)cc3)cc3ccccc23)s1 [Example 16, N-(3-(4-fluorophenylsulfonyl)isoquinolin-1-yl)-5-methylthiazol-2-amine] | B (0.3 < B ≦ 0.4) | ≤ 5 | ≤ 10 | ≤ 100 | ≤ 10
3 | O=S(=O)(c1ccc(F)cc1)c1cc2ccccc2c(Nc2ncns2)n1 [Example 18, N-(3-(4-fluorophenylsulfonyl)isoquinolin-1-yl)-1,2,4-thiadiazol-5-amine] | B (0.3 < B ≦ 0.4) | ≤ 5 | ≤ 10 | 100 to 500 | 10 to 100
4 | [2H]C([2H])([2H])n1cnc(Nc2nc(S(=O)(=O)c3ccc(F)cc3)cc3ccccc23)c1 [Example 24, 3-((4-fluorophenyl)sulfonyl)-N-(1-methyl-d3-1H-imidazol-4-yl)isoquinolin-1-amine] | B (0.3 < B ≦ 0.4) | ≤ 5 | ≤ 10 | ≤ 100 | ≤ 10
5 | O=S(=O)(c1ccc(F)cc1)c1cc2ccccc2c(Nc2nccs2)n1 [Example 17, N-(3-(4-fluorophenylsulfonyl)isoquinolin-1-yl)thiazol-2-amine] | A (A ≦ 0.3) | ≤ 5 | 10 to 100 | 100 to 500 | 10 to 100
6 | Cc1cc(Nc2nc([S+]([O-])c3ccc(F)cc3)cc3ccccc23)n[nH]1 (stereo not shown) [Example 13, 3-(4-fluorophenylsulfinyl)-N-(5-methyl-1H-pyrazol-3-yl)isoquinolin-1-amine] | D (D > 0.5) | ≤ 5 | ≤ 10 | ≤ 100 | ≤ 10
7 | Cc1cnc(Nc2nc([S+]([O-])c3ccc(F)cc3)cc3ccccc23)s1 (stereo not shown) [Example 12, N-(3-(4-fluorophenylsulfinyl)isoquinolin-1-yl)-5-methylthiazol-2-amine] | C (0.4 < C ≦ 0.5) | ≤ 5 | ≤ 10 | ≤ 100 | 10 to 100
8 | CCn1cnc(Nc2nc(S(=O)(=O)c3ccc(F)cc3)cc3ccccc23)c1 [Example 25, N-(1-ethyl-1H-imidazol-4-yl)-3-((4-fluorophenyl)sulfonyl)isoquinolin-1-amine] | C (0.4 < C ≦ 0.5) | ≤ 5 | ≤ 10 | ≤ 100 | ≤ 10
9 | O=S(=O)(c1ccc(F)cc1)c1cc2ccccc2c(Nc2ncco2)n1 [Example 23, N-(3-(4-fluorophenylsulfonyl)isoquinolin-1-yl)oxazol-2-amine] | A (A ≦ 0.3) | > 50 | > 100 | > 500 | > 100
10 | O=S(=O)(c1ccc(F)cc1)c1cc2ccccc2c(Nc2cc[nH]n2)n1 [Example 14, 3-(4-fluorophenylsulfonyl)-N-(1H-pyrazol-3-yl)isoquinolin-1-amine] | B (0.3 < B ≦ 0.4) | ≤ 5 | ≤ 10 | ≤ 100 | ≤ 10
11 | Cn1cnc(Nc2nc(S(=O)(=O)c3ccc(F)cc3)cc3ccccc23)c1 [Example 20, 3-(4-fluorophenylsulfonyl)-N-(1-methyl-1H-imidazol-4-yl)isoquinolin-1-amine] | C (0.4 < C ≦ 0.5) | ≤ 5 | ≤ 10 | ≤ 100 | ≤ 10
12 | Cc1cc(Nc2nc(S(=O)(=O)c3ccc(F)cc3)cc3c(Br)cccc23)n[nH]1 [Example 26, 5-bromo-3-((4-fluorophenyl)sulfonyl)-N-(5-methyl-1H-pyrazol-3-yl)isoquinolin-1-amine] | A (A ≦ 0.3) | ≤ 5 | ≤ 10 | ≤ 100 | ≤ 10
13 | [O-][S+](c1ccc(F)cc1)c1cc2ccccc2c(Nc2nccs2)n1 (stereo not shown) [Example 11, N-(3-(4-fluorophenylsulfinyl)isoquinolin-1-yl)thiazol-2-amine] | A (A ≦ 0.3) | ≤ 5 |  | ≤ 100 | 10 to 100
14 | Cc1cc(Nc2nc(S(=O)(=O)c3ccc(F)cc3)cc3ccccc23)n[nH]1 [Example 10, 3-(4-fluorophenylsulfonyl)-N-(5-methyl-1H-pyrazol-3-yl)isoquinolin-1-amine] | D (D > 0.5) | ≤ 5 | ≤ 10 | ≤ 100 | ≤ 10
15 | Cc1cc(Nc2nc(C(=O)c3ccc(F)cc3)cc3ccccc23)n[nH]1 [Example 1, (4-fluorophenyl)(1-(5-methyl-1H-pyrazol-3-ylamino)isoquinolin-3-yl)methanone] | A (A ≦ 0.3) | ≤ 5 | ≤ 10 | 100 to 500 | 10 to 100
16 | Cc1cc(Nc2nc(C(O)c3ccc(F)cc3)cc3ccccc23)n[nH]1 (racemic) [Example 2, (R,S)-(4-fluorophenyl)(1-(5-methyl-1H-pyrazol-3-ylamino)isoquinolin-3-yl)methanol] |  | ≤ 5 | ≤ 10 | ≤ 100 | ≤ 10
17 | Cc1coc(Nc2nc([S+]([O-])c3ccc(F)cc3)cc3ccccc23)n1 (racemic) [Example 22, (R,S)—N-(3-(4-fluorophenylsulfinyl)isoquinolin-1-yl)-4-methyloxazol-2-amine] | A (A ≦ 0.3) | > 50 |  | > 500 | > 100
